Assay results from patent US20230136301A1, “Corticosteriod Reduction in Treatment with Anti-CD38 Antibody” (Janssen Biotech, Inc., priority 2021, published 2023).
Where “and” joins values, the source holds several entries; their conditions need not be identical. Equal values may be shown once. Read-outs that look alike come from different tables or passages of the source.

Legend:
[1] = PAVO Part 3: serum daratumumab concentration, pre-dose Cycle 3 Day 1; format: in vivo, human; conditions: Cycle 3 Day 1 pre-dose
patients with RRMM [2] = assay: PAVO Part 3: efficacy by IMWG response criteria; format: in vivo, human
Description: The primary endpoint was safety of pre- and post-dose steroid tapering. Key secondary endpoints included the overall response rate (ORR) and the rate of complete response (CR).
For the evaluation of efficacy, responses were assessed according to International Myeloma Working Group (IMWG) consensus recommendations (Durie et al., Leukemia 20(9):1467-73 (2006); Rajkumar et al., Blood 117(18):4691-95 (2011)). Disease evaluations were performed by a central laboratory.
In PAVO Part 3, no formal statistical hypothesis testing was performed. Data were summarized descriptively. Continuous variables were summarized using the number of observations, mean and standard deviation (SD), coefficient of variation, median and range as appropriate. Categorical variables were summarized using the number of observations and percentages as appropriate. Duration of response and PFS were estimated using Kaplan-Meier methods.

patients with RRMM [3] = assay: PAVO Part 3: infusion-related reactions (IRRs)
Description: Safety was assessed, with an emphasis on IRRs, while corticosteroids were reduced and discontinued.
The purpose of Part 3 was to evaluate the safety of daratumumab 1,800 mg SC delivery without predose and postdose corticosteroids after a 3-week, 2-week, and 1-week tapering schedule to assess the safety of corticosteroid-free SC daratumumab administration. […] In conjunction, patients also received a 3-week, 2-week, or 1-week steroid tapering schedule (FIG. 2). The 3-week tapering schedule (corticosteroid-free by Cycle 1 Day 22) consisted of methylprednisolone (MP) given orally (PO)/IV pre-dose (Cycle 1 Day 1, 100 mg; Cycle 1 Day 8, 60 mg; Cycle 1 Day 15, 30 mg) and PO post-dose (Cycle 1 Day 1, 20 mg for 2 days; Cycle 1 Day 8, 20 mg for 1 day; Cycle 1 Day 15, 20 mg for 1 day). The 2-week tapering schedule (corticosteroid-free by Cycle 1 Day 15) consisted of MP given PO/IV pre-dose (Cycle 1 Day 1, 100 mg; Cycle 1 Day 8, 60 mg) and PO post-dose (Cycle 1 Day 1, 20 mg for 2 days; Cycle 1 Day 8, 20 mg for 1 day). The 1-week tapering schedule (corticosteroid-free by Cycle 1 Day 8) consisted of dexamethasone 20 mg administered IV pre-dose on Cycle 1 Day 1, without post-dose administration.
The 3-week, 2-week and 1-week steroid tapering schedules were assessed by “3+3” design, followed by cohort expansion to approximately 15 patients (3-week and 2-week tapering cohorts) or 12 patients (1-week tapering cohort). The dose-limiting toxicity (DLT) assessment period in the 3-week, 2-week and 1-week tapering cohorts were Cycle 1 Day 1 through Cycle 2 Day 4, Cycle 1 Day 1 through Cycle 1 Day 25, and Cycle 1 Day 1 through Cycle 1 Day 11, respectively. […] Grade 3 or 4 IRRs only qualified as DLTs if they occurred during corticosteroid reduction or discontinuation (not during Cycle 1 Day 1). For the 3-week and 2-week groups, IRRs reported at Cycle 1 Day 1 were not considered DLTs, as corticosteroids had not yet been reduced or discontinued. Up to approximately 12 patients could be enrolled in the 1-week tapering schedule to assess safety, including IRRs.
Safety assessments included treatment-emergent adverse events (TEAEs), serious adverse events, and IRRs. All toxicities were graded according to the National Cancer Institute's Common Terminology for the Classification of Adverse Events (NCI-CTCAE) Version 4.03 (National Cancer Institute. Common Terminology Criteria for Adverse Events (CTCAE): Version 4.03.).

[4] = test system: patients with multiple myeloma; conditions: cited from earlier work
patients with RRMM [5] = conditions: PAVO Part 2; follow-up 14.2 months; cited from earlier work

DARA SC: 1,800 mg daratumumab co-formulated with 30,000 U rHuPH20 (2,000 U/mL, 15 mL), manual subcutaneous injection
Mean (SD) daratumumab serum concentration ([1]; 1-week taper): 706 (270) μg/mL and 706 μg/mL
Mean (SD) daratumumab serum concentration ([1]; 2-week taper): 731 (382) μg/mL and 731 μg/mL
Mean (SD) daratumumab serum concentration ([1]; 3-week taper): 604 (280) μg/mL and 604 μg/mL
Mean (SD) daratumumab serum concentration ([1]; total PK-evaluable n=37): 676 (314) μg/mL
9-month duration of response rate (patients with RRMM [2]; 1-week taper): 100%
Estimated 9-month PFS rate (patients with RRMM [2]; 1-week taper): 46.7%
Median PFS (patients with RRMM [2]; 1-week taper): 7.4 months
Median duration of response (patients with RRMM [2]; 1-week taper): not reached
Median time to best response (patients with RRMM [2]; 1-week taper): 1.0 months
Patients achieving ≥CR (patients with RRMM [2]; 1-week taper): 1 (8.3%) n (%)
Patients achieving ≥VGPR (patients with RRMM [2]; 1-week taper): 2 (16.7%) n (%)
Rate of very good partial response or better (patients with RRMM [2]; 1-week taper): 16.7%
Overall response rate (ORR) (patients with RRMM [2]; 1-week taper, median follow-up 8.3 months): 41.7%
9-month duration of response rate (patients with RRMM [2]; 2-week taper): 83.3%
Estimated 9-month PFS rate (patients with RRMM [2]; 2-week taper): 36.1%
Median PFS (patients with RRMM [2]; 2-week taper): 4.7 months
Median duration of response (patients with RRMM [2]; 2-week taper): 16.7 months
Median time to best response (patients with RRMM [2]; 2-week taper): 1.9 months
Patients achieving ≥CR (patients with RRMM [2]; 2-week taper): no patient
Patients achieving ≥VGPR (patients with RRMM [2]; 2-week taper): 5 (33.3%) n (%)
Rate of very good partial response or better (patients with RRMM [2]; 2-week taper): 33.3%
Overall response rate (ORR) (patients with RRMM [2]; 2-week taper, median follow-up 11.1 months): 40.0%
9-month duration of response rate (patients with RRMM [2]; 3-week taper): 83.3%
Estimated 9-month PFS rate (patients with RRMM [2]; 3-week taper): 40.0%
Median PFS (patients with RRMM [2]; 3-week taper): 5.9 months
Median duration of response (patients with RRMM [2]; 3-week taper): not reached
Median time to best response (patients with RRMM [2]; 3-week taper): 1.5 months
Patients achieving ≥CR (patients with RRMM [2]; 3-week taper): 1 (6.7%) n (%)
Patients achieving ≥VGPR (patients with RRMM [2]; 3-week taper): 3 (20.0%) n (%)
Rate of very good partial response or better (patients with RRMM [2]; 3-week taper): 20.0%
Overall response rate (ORR) (patients with RRMM [2]; 3-week taper, median follow-up 9.2 months): 40.0%
Patients achieving ≥CR (patients with RRMM [2]; Total n=42): 2 (4.8% (95% CI: 0.6%, 16.2%)) n (%)
Patients achieving ≥VGPR (patients with RRMM [2]; Total n=42): 10 (23.8% (95% CI: 12.1%, 39.5%)) n (%)
Overall response rate (ORR) (patients with RRMM [2]; Total n=42, median follow-up 8.3 months): 40.5%
Estimated 9-month PFS rate (patients with RRMM [2]; all treated N=42): 40.7%
Median PFS (patients with RRMM [2]; all treated N=42): 5.9 months
Median time to best response (patients with RRMM [2]; responders n=17): 1.1 months
Median time to first response (patients with RRMM [2]; responders n=17): 1.0 months
Patients with an IRR (patients with RRMM [3]; 1-week taper): 2 (16.7%) n (%)
Patients with an IRR (patients with RRMM [3]; 2-week taper): 3 (20.0%) n (%)
Patients with an IRR (patients with RRMM [3]; 3-week taper): 0 (0%) n (%)
Grade 4 IRRs (patients with RRMM [3]; Total n=42): no grade 4 IRRs reported
IRR of increased blood pressure (patients with RRMM [3]; Total n=42): 1 (2.4%) n (%)
IRR of oropharyngeal pain (patients with RRMM [3]; Total n=42): 1 (2.4%) n (%)
IRR of tachycardia (patients with RRMM [3]; Total n=42): 1 (2.4%) n (%)
IRRs meeting the definition of a DLT (patients with RRMM [3]; Total n=42): None of the IRRs met the definition of a DLT
Patients with an IRR (patients with RRMM [3]; Total n=42): 5 (11.9%) n (%)
Number of grade 3 IRRs (patients with RRMM [3]; increased blood pressure, 2-week taper, resolved on day of onset): 1
Median PFS ([4]; COLUMBA primary analysis): 5.6 months
Median duration of response ([4]; COLUMBA, follow-up 7.5 months): not reached
Overall response rate ([4]; COLUMBA, median follow-up 7.5 months): 41%
Median duration of response (patients with RRMM [5]): 15.7 months
ORR (patients with RRMM [5]): 52%
